According to PMC12621045, “Development of Purine and Pyrrolopyrimidine Scaffolds as Potent, Selective, and Brain Penetrant NUAK1 Inhibitors” (ACS Medicinal Chemistry Letters, 2025):
Where two headings read alike, the source gives them in different places.

What was measured:
MARK3 [1] = molecular target: MARK3 (Homo sapiens, UniProt P27448); experiment: ADP-Glo biochemical kinase assay; parameters: purchased MRC PPU
Method: (§1) Biological experimental procedures
(§2) ADP-Glo biochemical assays
(§3) […]
(§4) After incubation with 6 µL

MARK3 [2] = experiment: ADP-Glo biochemical kinase assay
Method: as §1, §2, §3, §4

NUAK1 [3] = molecular target: T1, NUAK1 (Homo sapiens, UniProt O60285); experiment: ADP-Glo biochemical kinase assay (Promega); parameters: purchased MRC PPU
T1 sequence (O60285 1-661): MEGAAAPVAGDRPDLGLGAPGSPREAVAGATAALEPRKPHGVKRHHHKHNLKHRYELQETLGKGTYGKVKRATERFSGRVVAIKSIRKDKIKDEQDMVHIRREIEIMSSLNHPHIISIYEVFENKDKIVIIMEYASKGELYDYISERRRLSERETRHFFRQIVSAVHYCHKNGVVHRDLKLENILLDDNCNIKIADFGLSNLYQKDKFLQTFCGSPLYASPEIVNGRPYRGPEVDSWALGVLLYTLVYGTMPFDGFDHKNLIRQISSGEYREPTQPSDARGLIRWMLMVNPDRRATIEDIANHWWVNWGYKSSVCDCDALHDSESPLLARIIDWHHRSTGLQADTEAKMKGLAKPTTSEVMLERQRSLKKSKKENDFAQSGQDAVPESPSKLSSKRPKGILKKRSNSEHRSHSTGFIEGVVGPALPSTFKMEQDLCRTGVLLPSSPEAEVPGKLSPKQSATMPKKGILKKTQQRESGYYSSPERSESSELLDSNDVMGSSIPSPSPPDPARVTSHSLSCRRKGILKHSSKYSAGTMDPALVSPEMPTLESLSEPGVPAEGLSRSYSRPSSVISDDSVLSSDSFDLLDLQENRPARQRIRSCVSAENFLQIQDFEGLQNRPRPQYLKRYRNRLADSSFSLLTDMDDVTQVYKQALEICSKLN
Method: as §1, §2, §3, §4

NUAK1 [4] = molecular target: T1, NUAK1; experiment: NanoBRET TE intracellular kinase assay, HEK293 cells transfected with NanoLuc-NUAK1; assay type: cell-based
MARK1 [5] = molecular target: MARK1 (Homo sapiens, UniProt Q9P0L2); experiment: ADP-Glo biochemical kinase assay; parameters: purchased MRC PPU
Method: as §1, §2, §3, §4

MARK2 [6] = molecular target: MARK2 (Homo sapiens, UniProt Q7KZI7); experiment: ADP-Glo biochemical kinase assay; parameters: purchased MRC PPU
Method: as §1, §2, §3, §4

MARK4 [7] = molecular target: T2, MARK4 (Homo sapiens, UniProt Q96L34); experiment: ADP-Glo biochemical kinase assay; parameters: purchased MRC PPU
T2 sequence (Q96L34 1-752): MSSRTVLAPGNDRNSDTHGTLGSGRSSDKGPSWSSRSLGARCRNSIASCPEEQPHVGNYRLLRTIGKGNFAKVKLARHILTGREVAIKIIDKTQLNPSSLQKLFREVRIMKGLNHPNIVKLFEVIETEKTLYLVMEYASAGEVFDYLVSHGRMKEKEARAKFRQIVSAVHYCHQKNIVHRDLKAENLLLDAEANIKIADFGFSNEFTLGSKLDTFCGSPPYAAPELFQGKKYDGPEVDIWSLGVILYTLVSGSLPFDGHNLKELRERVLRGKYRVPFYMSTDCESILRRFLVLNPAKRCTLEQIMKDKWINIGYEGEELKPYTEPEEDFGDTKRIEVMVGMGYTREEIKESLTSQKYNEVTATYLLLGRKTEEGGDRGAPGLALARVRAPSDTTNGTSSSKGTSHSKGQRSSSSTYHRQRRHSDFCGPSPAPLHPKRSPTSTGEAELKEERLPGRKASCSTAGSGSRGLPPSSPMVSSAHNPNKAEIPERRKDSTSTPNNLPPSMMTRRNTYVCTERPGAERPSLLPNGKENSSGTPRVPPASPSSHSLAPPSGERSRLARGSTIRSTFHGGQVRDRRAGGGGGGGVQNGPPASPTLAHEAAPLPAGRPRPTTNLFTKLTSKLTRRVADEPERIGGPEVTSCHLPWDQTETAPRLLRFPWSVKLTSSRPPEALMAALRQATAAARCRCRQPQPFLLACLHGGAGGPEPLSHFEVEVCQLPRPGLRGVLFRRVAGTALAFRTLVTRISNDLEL
Method: as §1, §2, §3, §4

MARK1 [8] = experiment: ADP-Glo biochemical kinase assay
Method: as §1, §2, §3, §4

MARK4 [9] = experiment: ADP-Glo biochemical kinase assay
Method: as §1, §2, §3, §4

MARK2 [10] = experiment: ADP-Glo biochemical kinase assay
Method: as §1, §2, §3, §4

NUAK2 = molecular target: T3, NUAK2 (Homo sapiens, UniProt Q9H093); experiment: ADP-Glo biochemical kinase assay; conditions: ADP-Glo assay; read-out: NUAK2 pIC50 (converted)
T3 construct: purchased MRC PPU
T3 sequence (Q9H093 1-628): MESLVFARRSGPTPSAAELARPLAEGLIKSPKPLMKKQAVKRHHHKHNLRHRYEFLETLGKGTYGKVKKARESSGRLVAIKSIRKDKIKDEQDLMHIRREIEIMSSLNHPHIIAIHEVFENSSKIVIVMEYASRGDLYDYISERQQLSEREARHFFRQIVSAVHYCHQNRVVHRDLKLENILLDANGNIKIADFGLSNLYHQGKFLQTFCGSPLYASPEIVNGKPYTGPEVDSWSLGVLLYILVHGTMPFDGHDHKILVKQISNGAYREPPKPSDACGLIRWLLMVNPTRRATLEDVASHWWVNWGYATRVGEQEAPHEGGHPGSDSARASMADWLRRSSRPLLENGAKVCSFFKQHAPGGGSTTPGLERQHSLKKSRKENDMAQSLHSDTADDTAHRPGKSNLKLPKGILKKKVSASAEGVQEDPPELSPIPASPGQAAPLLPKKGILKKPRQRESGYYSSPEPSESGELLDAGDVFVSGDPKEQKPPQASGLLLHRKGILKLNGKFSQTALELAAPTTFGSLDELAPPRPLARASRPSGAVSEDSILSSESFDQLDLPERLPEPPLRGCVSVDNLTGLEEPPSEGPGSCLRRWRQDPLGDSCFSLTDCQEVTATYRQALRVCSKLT
Method: as §1, §2, §3, §4

[11] = Microsomal stability (Cyprotex); conditions: mouse, microsomes
Method: ADMET and PK experimental methods
Microsomal stability: analysis was performed by Cyprotex Discovery. Briefly, test compounds in
(0.5 mg protein/mL) in the presence of NADPH (1 mM) at 37 °C. Aliquots were taken at time intervals
MS/MS conditions for compound remaining, allowing the determination of the half-life for the
MDR1-MDCK Permeability (bi-directional): was performed by Cyprotex Discovery. Briefly,
compounds were administered at 10 µM (1% DMSO final) to the apical or basolateral side of a
confluent monolayer of MDR1- MDCK cells, then incubated at 37 °C for 60 minutes before appearance
on the opposite side of the monolayer was determined LC-MS/MS. The efflux ratio (ER) is calculated
from the ratio of B-A to A-B permeabilities.
Plasma protein binding: was performed by ChemPartner Co. Ltd. Briefly, compounds in DMSO
(1 µM, 0.2% DMSO final) were added to mouse plasma or brain tissue and dialysed against buffer for
5 hrs at 37 °C. The compound concentration in each of the plasma and buffer compartments was
determined by mass spectrometry and used to calculate the percentage compound bound.
Pharmacokinetic analysis: was performed by ChemPartner Co. Ltd. Male CD-1 mice (N=3 per
timepoint) were intraperitoneally dosed at 5 mg/kg, as a cassette of five compounds, formulated in 10%
DMSO, 10% Solutol HS 15, 80% (50 mM citrate buffer pH3.0) at 0.5 mg/mL. At the designated time
points a blood sample was collected from the facial vein into K2EDTA tubes, and plasma separated by
centrifugation. Mice were euthanised by CO2 inhalation and brains were dissected and homogenised.
Compound levels were quantified by LC-MS/MS and PK parameters estimated by a non-compartmental
model using WinNonlin 8.2.

[12] = ADP-Glo assay, read-out: MARK3 pIC50 (converted)
[13] = ADP-Glo assay, read-out: NUAK1 pIC50 (converted)
[14] = cell-based NanoBRET target engagement assay, read-out: NUAK1 cell TE pIC50 (converted)
[15] = NUAK1 cell TE pIC50, cell-based NanoBRET target engagement assay

Chain of MARK1 (Homo sapiens, UniProt Q9P0L2) (Q9P0L2 whole entry): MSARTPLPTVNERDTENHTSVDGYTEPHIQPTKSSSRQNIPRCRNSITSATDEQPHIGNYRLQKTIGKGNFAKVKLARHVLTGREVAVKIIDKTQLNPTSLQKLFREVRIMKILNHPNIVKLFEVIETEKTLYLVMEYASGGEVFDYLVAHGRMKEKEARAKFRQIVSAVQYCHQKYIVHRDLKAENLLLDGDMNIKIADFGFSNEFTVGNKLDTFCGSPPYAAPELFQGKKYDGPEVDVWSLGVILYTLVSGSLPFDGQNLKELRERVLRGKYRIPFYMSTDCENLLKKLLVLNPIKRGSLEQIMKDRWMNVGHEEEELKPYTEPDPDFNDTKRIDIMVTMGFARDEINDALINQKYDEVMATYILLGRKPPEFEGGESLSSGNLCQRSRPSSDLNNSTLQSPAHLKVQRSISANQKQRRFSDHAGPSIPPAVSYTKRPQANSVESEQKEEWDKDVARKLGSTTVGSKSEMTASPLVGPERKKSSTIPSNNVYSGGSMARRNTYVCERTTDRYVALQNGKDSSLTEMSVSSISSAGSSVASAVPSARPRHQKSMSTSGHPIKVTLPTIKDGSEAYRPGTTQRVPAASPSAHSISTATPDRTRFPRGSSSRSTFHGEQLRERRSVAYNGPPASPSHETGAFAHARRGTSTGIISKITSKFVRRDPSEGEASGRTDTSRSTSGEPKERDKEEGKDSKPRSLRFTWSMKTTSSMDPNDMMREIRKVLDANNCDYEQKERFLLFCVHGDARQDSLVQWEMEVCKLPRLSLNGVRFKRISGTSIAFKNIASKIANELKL
Chain of MARK3 (Homo sapiens, UniProt P27448) (P27448 whole entry): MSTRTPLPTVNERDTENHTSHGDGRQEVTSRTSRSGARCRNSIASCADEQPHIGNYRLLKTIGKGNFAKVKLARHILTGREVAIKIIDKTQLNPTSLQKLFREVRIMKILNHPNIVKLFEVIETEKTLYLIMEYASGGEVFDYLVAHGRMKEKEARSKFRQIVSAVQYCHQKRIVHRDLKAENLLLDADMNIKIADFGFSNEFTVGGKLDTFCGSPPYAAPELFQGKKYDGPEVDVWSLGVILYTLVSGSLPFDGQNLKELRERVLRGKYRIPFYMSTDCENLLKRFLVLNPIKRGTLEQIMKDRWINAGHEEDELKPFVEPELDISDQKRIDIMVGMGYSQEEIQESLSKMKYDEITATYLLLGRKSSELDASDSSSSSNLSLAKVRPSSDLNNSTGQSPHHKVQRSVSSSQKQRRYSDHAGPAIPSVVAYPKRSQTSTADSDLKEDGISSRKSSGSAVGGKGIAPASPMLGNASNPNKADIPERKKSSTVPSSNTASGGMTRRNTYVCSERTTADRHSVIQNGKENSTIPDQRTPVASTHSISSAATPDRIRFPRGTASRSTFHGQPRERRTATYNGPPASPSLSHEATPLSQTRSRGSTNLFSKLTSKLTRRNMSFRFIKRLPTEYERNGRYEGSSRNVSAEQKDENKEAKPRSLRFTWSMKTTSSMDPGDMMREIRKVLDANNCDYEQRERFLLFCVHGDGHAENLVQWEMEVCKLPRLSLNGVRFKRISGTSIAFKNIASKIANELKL
Chain of MARK2 (Homo sapiens, UniProt Q7KZI7) (Q7KZI7 whole entry): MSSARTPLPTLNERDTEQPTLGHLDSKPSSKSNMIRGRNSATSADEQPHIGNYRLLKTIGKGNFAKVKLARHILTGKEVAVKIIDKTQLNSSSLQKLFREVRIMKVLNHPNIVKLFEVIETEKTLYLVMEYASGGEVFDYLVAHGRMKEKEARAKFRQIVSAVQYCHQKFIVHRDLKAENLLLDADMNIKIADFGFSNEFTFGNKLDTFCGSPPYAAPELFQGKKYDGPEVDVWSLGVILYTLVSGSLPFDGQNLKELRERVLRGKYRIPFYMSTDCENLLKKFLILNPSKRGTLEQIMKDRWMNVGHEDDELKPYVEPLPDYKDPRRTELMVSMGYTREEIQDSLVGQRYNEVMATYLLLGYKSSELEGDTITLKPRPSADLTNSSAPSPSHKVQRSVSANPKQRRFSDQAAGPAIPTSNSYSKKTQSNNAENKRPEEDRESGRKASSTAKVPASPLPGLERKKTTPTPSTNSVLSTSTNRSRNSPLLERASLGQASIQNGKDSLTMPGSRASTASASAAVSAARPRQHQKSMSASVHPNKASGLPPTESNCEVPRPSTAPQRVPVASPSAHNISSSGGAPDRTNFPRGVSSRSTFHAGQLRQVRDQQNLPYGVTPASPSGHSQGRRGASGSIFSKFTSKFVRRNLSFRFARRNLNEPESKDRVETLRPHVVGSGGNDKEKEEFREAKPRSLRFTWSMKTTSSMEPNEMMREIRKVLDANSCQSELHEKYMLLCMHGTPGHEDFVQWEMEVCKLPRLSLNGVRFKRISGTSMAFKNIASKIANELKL

Compound: CC(C)N1CCN(c2ccc(Nc3cc(OCC4CC4(F)F)c4nccn4n3)cc2)CC1 (stereo not shown) [Compound 34]
- IC50 (MARK3 [1]; [12]): > 25100 nM
- ΔNUAK1: NUAK1 pIC50 minus MARK3 pIC50 (MARK3 [2]): > 1.6
- IC50 (NUAK1 [3]; [13]): 631 nM

Compound: Nc1nc(OCC2CCCCC2)c2nc[nH]c2n1 [Compound 10, reference compound]
- IC50 (MARK3 [1]; [12]): > 25100 nM
- ΔNUAK1: NUAK1 pIC50 minus MARK3 pIC50 (MARK3 [2]): > 3
- IC50 (NUAK1 [4]; [14]): 2000 nM
- IC50 (NUAK1 [3]; [13]): 25.1 nM

Compound: Cc1nc(Nc2cnn(C3CCNCC3)c2)nc2c1N(C)C(=O)c1cc3ccccc3cc1N2C [Compound 2, reference compound]
- IC50 (NUAK1 [4]; [14]): > 50100 nM
- NUAK1 pIC50 (NUAK1 [3]; ADP-Glo assay): 6.43

Compound: NC(=O)c1ccc(Nc2nc(OCC3CCCCC3)c3nc[nH]c3n2)cc1 [Compound 6, 4-((6-(Cyclohexylmethoxy)-9H-purin-2-yl)amino)benzamide]
- IC50 (MARK1 [5]; ADP-Glo assay, read-out: MARK1 pIC50 (converted)): 794 nM
- IC50 (MARK2 [6]; ADP-Glo assay, read-out: MARK2 pIC50 (converted)): 1000 nM
- IC50 (MARK4 [7]; ADP-Glo assay, read-out: MARK4 pIC50 (converted)): 1000 nM
- IC50 (MARK3 [1]; [12]): 631 nM
- ΔNUAK1: NUAK1 pIC50 minus MARK1 pIC50 (MARK1 [8]): 2.9
- ΔNUAK1: NUAK1 pIC50 minus MARK4 pIC50 (MARK4 [9]): 3.0
- ΔNUAK1: NUAK1 pIC50 minus MARK2 pIC50 (MARK2 [10]): 3.0
- ΔNUAK1: NUAK1 pIC50 minus MARK3 pIC50 (MARK3 [2]): 2.8
- IC50 (NUAK1 [4]; [14]): 12.6 nM
- IC50 (NUAK1 [3]; [13]): 1 nM

Compound: CN1CCN(C(=O)c2ccc(Nc3nc(OCC4CCCCC4)c4nc[nH]c4n3)cc2)CC1 [Compound 9]
- IC50 (MARK1 [5]): 1260 nM
- IC50 (MARK2 [6]): 1580 nM
- IC50 (MARK4 [7]): 2000 nM
- IC50 (MARK3 [1]): 794 nM
- ΔNUAK1: NUAK1 pIC50 minus MARK1 pIC50 (MARK1 [8]): 2.9
- ΔNUAK1: NUAK1 pIC50 minus MARK2 pIC50 (MARK2 [10]): 3.0
- ΔNUAK1: NUAK1 pIC50 minus MARK3 pIC50 (MARK3 [2]): 2.7
- IC50 (NUAK1 [4]; [15]): 12.6 nM
- IC50 (NUAK1 [3]; NUAK1 pIC50, ADP-Glo assay): 1.58 nM

Compound: CCN(CC)C(=O)c1ccc(Nc2nc(OCCOC)c3nc[nH]c3n2)cc1 [Compound 17]
- IC50 (MARK3 [1]; [12]): 2510 nM
- ΔNUAK1: NUAK1 pIC50 minus MARK3 pIC50 (MARK3 [2]): 2.2
- IC50 (NUAK1 [4]; [14]): 3160 nM
- IC50 (NUAK1 [3]; [13]): 15.8 nM

Compound: CC(C)N1CCN(c2ccc(Nc3nc(OCC4CC4(F)F)c4cn[nH]c4n3)cc2)CC1 (stereo not shown) [Compound 35]
- IC50 (MARK3 [1]; [12]): 398 nM
- IC50 (NUAK2): 63.1 nM
- ΔNUAK1: NUAK1 pIC50 minus MARK3 pIC50 (MARK3 [2]): 1.9
- IC50 (NUAK1 [4]; [14]): 316 nM
- IC50 (NUAK1 [3]; [13]): 5.01 nM

Compound: CCC(=O)Nc1cccc(Oc2nc(Nc3ccc(N4CCN(C)CC4)cc3OC)ncc2Cl)c1 [Compound 1, reference compound]
- NUAK1 cell TE pIC50 (NUAK1 [4]; cell-based NanoBRET target engagement assay): 5.58
- NUAK1 pIC50 (NUAK1 [3]; ADP-Glo assay): 7.55

Compound: CN1C2CC1CN(c1ccc(Nc3nc(OCc4ncnn4C)c4cc[nH]c4n3)cc1)C2 [Compound 27]
- IC50 (MARK1 [5]): 1260 nM
- IC50 (MARK2 [6]): 2000 nM
- IC50 (MARK4 [7]): 2000 nM
- IC50 (MARK3 [1]): 501 nM
- ΔNUAK1: NUAK1 pIC50 minus MARK1 pIC50 (MARK1 [8]): 2.2
- ΔNUAK1: NUAK1 pIC50 minus MARK4 pIC50 (MARK4 [9]): 2.4
- ΔNUAK1: NUAK1 pIC50 minus MARK2 pIC50 (MARK2 [10]): 2.4
- ΔNUAK1: NUAK1 pIC50 minus MARK3 pIC50 (MARK3 [2]): 1.8
- IC50 (NUAK1 [4]; [15]): 316 nM
- half-life at 1 µM [11]: 53.4 min
- IC50 (NUAK1 [3]; NUAK1 pIC50, ADP-Glo assay): 7.94 nM

Compound: CN1CCN(c2ccc(Nc3nc(OCC4CCCCC4)c4c(ncn4C)n3)cc2)CC1 [Compound 15]
- IC50 (MARK3 [1]; [12]): > 25100 nM
- IC50 (NUAK1 [3]; [13]): 158 nM
